Assay [1] deals with Akt. As to the kind of experiment: Western blotting of Akt phosphorylation, H292. The format is cell-based, human. The note with it: H292 in vitro; 30 nM paclitaxel; 2, 6, 24 hours.
Procedure: H292 cells were treated with 30 nM paclitaxel (in the presence and absence of 3 μM OSI-906), and the phosphorylation state for Akt was determined by Western blotting.
Assay [2] relates to IGF-1R. The assay can be described thus: In vivo pharmacodynamic study, pIGF-1R in H292 xenografts. The following applies: mice bearing H292 xenografts; 24 mg/kg paclitaxel; 24 hours.
Procedure: B. Mice bearing H292 xenografts were treated with 24 mg/kg paclitaxel for 24 hours prior to harvesting tumors. Tumors were profiled for pIGF-1R levels using the RTK capture array, in duplicate. Four separate animals were used: Control (Ctrl) A1; Control (Ctrl) A2; Paclitaxel-treated A1; and Paclitaxel-treated A2.
Proteome profiler arrays housing 42 different RTKs were purchased from R&D systems (Minneapolis, Minn.) and processed according to the manufacturer's protocol. […] This array was used as an RTK capture assay for determining pIGF-1R levels.
Female athymic nude nu/nu CD-1 mice (6-8 wks, 22-29 g) were obtained from Charles River Laboratories (Wilmington, Mass.). Animals were allowed to acclimate for a minimum of one week prior to initiation of a study. Throughout the studies, animals were allowed sterile rodent chow and water ad libitum, and animals were maintained under specific pathogen free conditions.
NCI—H292 NSCLC tumor cells were harvested from cell culture flasks during exponential cell growth, washed twice with sterile PBS, counted and resuspended in PBS to a suitable concentration before s.c. implantation on the right flank of female nu/nu CD-1 mice. Tumors were established to 200+/−50 mm in size before randomization into treatment groups. Paclitaxel or cisplatin were administered at the indicated dose, and tumors from treated mice were harvested at 24 hours after dosing. […]
Assay [3] has as its system IGF-1R. As to the kind of experiment: RTK capture array, pIGF-1R in H358 cells. The following applies: taxol 100 nM, 24 hours.
The subject of another assay is IGF-1R complex. The assay can be described thus: phosphorylation of the IGF-1R complex in MDA-1186 (data not shown). The format is cell-based, human.
The subject of assay [4] is IGF-1R. As to the kind of experiment: RTK capture array, pIGF-1R in H292 cells. The format is cell-based, human.
Procedure: Also shown is the effect of taxol (100 nM) on IGF-1R phosphorylation for H292 and H358 tumor cells. Phosphorylation was captured 24 hours after dosing with taxol and realized using the Proteome Profiler™ RTK capture Array (R & D Systems).
A. Effect of varying concentrations of taxol on pIGF-1R for H292 tumor cells. pIGF-1R was measured 24 hours after dosing and realized using the proteome profiler RTK capture array (R & D Systems).
A. H292 NSCLC tumor cells were treated with 30 nM paclitaxel for varying time points, alone or in the presence of 3 μM OSI-906. The phosphorylation of IGF-1R was determined by an RTK capture array, in duplicate (pIGF-1R=phosphorylated IGF-1R).
(§1) Proteome profiler arrays housing 42 different RTKs were purchased from R&D systems (Minneapolis, Minn.) and processed according to the manufacturer's protocol. RTKs included on the array include: HER1, HER2, HER3, HER4, FGFR1, FGFR2a, FGFR3, FGFR4, IR, IGF-1R, Ax1, Dtk, Mer, HGFR, MSPR, PDGFRα, PDGFRβ, SCFR, Flt-3, M-CSFR, c-Ret, ROR1, ROR2, Tie-1, Tie-2, TrkA, TrkB, TrkC, VEGFR1, VEGFR2, VEGFR3, MuSK, EphA1, EphA2, EphA3, EphA4, EphA6, EphA7, EphB1, EphB2, EphB4, EphB6. This array was used as an RTK capture assay for determining pIGF-1R levels.
For assay [5], the system named is H460 tumor cells. As to the kind of experiment: Caspase 3/7 Glo apoptosis assay, H460. The format is cell-based, human. The note with it: 24 hours.
Procedure: (§2) The combination of varying concentrations of OSI-906 (30 nM-3 μM) with 3 nM Taxol on the induction of apoptosis at 24 hours post dosing (Caspase GlO™, Promega) was determined for a panel of 5 NSCLC tumor cell lines (H460, H292, H322, H358, and Calu6).
A. Effect of varying concentrations of OSI-906, alone or in the presence of 12 nM Taxol, on apoptosis for H460 tumor cells. Apoptosis was measured 24 hours after dosing and determined by caspase 3/7 activity (Caspase GlO™, Promega). […] The dotted line represents the theoretical expectation for additivity and was calculated using the Bliss model for additivity.
(§3) Measurement of apoptosis: Induction of apoptosis as measured by increased Caspase 3/7 activity was determined using the Caspase 3/7 Glo assay (Promega Corporation, Madison, Wis.). Cell lines were seeded at a density of 3000 cells per well in a 96-well plate. 24 hours after plating cells were dosed with varying concentrations of drug, either as a single agent or in combination. The signal for Caspase 3/7 Glo was determined 24 hours after dosing. The caspase 3/7 activity was normalized to cell number per well, using a parallel plate treated with Cell Titer Glo (Promega Corporation, Madison, Wis.). Signal for each well was normalized using the following formula: Caspase 3/7 Glo luminescence units/Cell Titer Glo fraction of DMSO control.
For a further assay, the system named is IR. As to the kind of experiment: Proteome Profiler RTK capture array, pIR in A673. The format is cell-based, human. The note with it: for phosphorylation of IR, single agent: OSI-906 3 μM, Doxorubicin 500 nM, MAB391 10 ug/ml.
For another assay, the system named is H322 tumor cells. As to the kind of experiment: Caspase 3/7 Glo apoptosis assay, H322. The format is cell-based, human.
The subject of the next assay is MDA-MB-231 cells. The assay can be described thus: Caspase 3/7 Glo apoptosis assay, MDA-MB-231. The format is cell-based, human. The note with it: 24 hours.
For assay [6], the system named is A673 tumor cells. As to the kind of experiment: Caspase 3/7 Glo apoptosis assay, A673. The format is cell-based, human. The note with it: in the presence of doxorubicin (333 nM or 1 uM), listed as OSI-906. The method, then: FIG. 3: OSI-906 synergizes with doxorubicin to inhibit cell growth and survival in A673 ES (Ewing's Sarcoma) tumor cells. A. Effect of varying concentrations of doxorubicin, in the presence and absence of 5 μM OSI-906, on the proliferation of A673 tumor cells. Proliferation data were collected 48 hours after dosing and realized using the Cell Titer Glo™ assay (Promega). The dotted line in the plot represents the calculated theoretical expectation if the combination was additive in nature and was determined using the Bliss model for additivity. B. Effect of varying concentrations of OSI-906 (0, 300 nM, and 1 μM) on the induction of apoptosis for A673 tumor cells, in the presence or absence of 333 nM doxorubicin. Apoptosis was determined by measuring caspase 3/7 activity (Caspase GlO™, Promega), and measurements were captured 48 hours after dosing.
FIG. 5: OSI-906 has the potential to promote greater synergy with doxorubicin in ES tumor cells than neutralizing IGF-1R antibodies. Effect of varying concentrations of OSI-906 (0, 300 nM, 1 μM, and 3 μM) or the IGF-1R neutralizing antibody α-IR3 (10 ug/ml) on the induction of apoptosis for A673 tumor cells, in the presence or absence of 333 nM or 1 uM doxorubicin. Apoptosis was determined by measuring caspase 3/7 activity (Caspase GlO™, Promega), and measurements were captured 24 hours after dosing.

For a further assay, the system named is MDA-1186 tumor cells. As to the kind of experiment: Caspase 3/7 Glo apoptosis assay, MDA-1186. The format is cell-based, human.
Assay [7] relates to A673 tumor cells. The assay can be described thus: Cell Titer Glo overall cell growth, A673. In kind it is cell-based, human. The note with it: 5 μM OSI-906, 48 hours, versus Bliss additivity. (ATP-based viability assays read luminescence as a measure of living cells.)
Procedure: A. Effect of varying concentrations of doxorubicin, in the presence and absence of 5 μM OSI-906, on the proliferation of A673 tumor cells. Proliferation data were collected 48 hours after dosing and realized using the Cell Titer Glo™ assay (Promega). The dotted line in the plot represents the calculated theoretical expectation if the combination was additive in nature and was determined using the Bliss model for additivity. […] Measurement of Cell Proliferation: Cell proliferation was determined using the Cell Titer Glo assay (Promega Corporation, Madison, Wis.). Tumor cells were seeded at a density of 3000 cells per well in a 96-well plate. 24 hours after plating cells were dosed with varying concentrations of drug, either as a single agent or in combination. Using parallel replicate plates, the signal for Cell Titer Glo was determined 24 hours after dosing.
For assay [8], the system named is SK-ES-1 tumor cells. As to the kind of experiment: Cell Titer Glo overall cell growth, SK-ES-1. In kind it is cell-based, human. On the procedure:
Measurement of Cell Proliferation: Cell proliferation was determined using the Cell Titer Glo assay (Promega Corporation, Madison, Wis.). […] Using parallel replicate plates, the signal for Cell Titer Glo was determined 24 hours after dosing.

The next assay concerns H292 tumor cells. The assay can be described thus: Caspase 3/7 Glo apoptosis assay, H292. In kind it is cell-based, human. The following applies: OSI-906 30 nM-3 μM with 50 uM cisplatin, 24 hours, compared with single agents.
The test system of assay [9] is Akt phosphorylation (pAkt-S473). The assay can be described thus: Western blotting of Akt phosphorylation, MDA-MB-231. On the technique in general: A western blot detects proteins with antibodies after separation by electrophoresis.
A further assay relates to H358 tumor cells. The assay can be described thus: Caspase 3/7 Glo apoptosis assay, H358. In kind it is cell-based, human. The note with it: Taxol 3 nM, 24 hours.
A further assay relates to Erk. The assay can be described thus: Western blotting of Erk phosphorylation, A673. The following applies: 24 hour; for MAPK (Erk) pathway activity / activation state, single agent: OSI-906 3 uM, Doxorubicin 500nM or 1 μM.
For assay [10], the system named is H460 tumor cells. As to the kind of experiment: Cell Titer Glo overall cell growth, H460. The format is cell-based, human.
Procedure: B. Effect of varying concentrations of taxol, alone or in the presence of 5 μM OSI-906 on overall cell growth. Overall cell growth was determined by the Cell Titer Glo™ assay (Promega) and measured 72 hours after dosing. The dotted line represents the theoretical expectation for additivity and was calculated using the Bliss model for additivity. Measurement of Cell Proliferation: Cell proliferation was determined using the Cell Titer Glo assay (Promega Corporation, Madison, Wis.). Tumor cells were seeded at a density of 3000 cells per well in a 96-well plate. 24 hours after plating cells were dosed with varying concentrations of drug, either as a single agent or in combination. Using parallel replicate plates, the signal for Cell Titer Glo was determined 24 hours after dosing.
Assay [11] concerns SK-ES-1 tumor cells. The assay can be described thus: Caspase 3/7 Glo apoptosis assay, SK-ES-1. The format is cell-based, human. The following applies: in the presence of 1 μM doxorubicin, 24 hours.
Procedure: Effect of varying concentrations of OSI-906 (0, 300 nM, 1 μM, 3 μM, or 5 μM) on the induction of apoptosis for SK-ES-1 tumor cells, in the presence or absence of 1 μM doxorubicin. Apoptosis was determined by measuring caspase 3/7 activity (Caspase GlO™, Promega), and measurements were captured 24 hours after dosing. Measurement of apoptosis: Induction of apoptosis as measured by increased Caspase 3/7 activity was determined using the Caspase 3/7 Glo assay (Promega Corporation, Madison, Wis.). Cell lines were seeded at a density of 3000 cells per well in a 96-well plate. 24 hours after plating cells were dosed with varying concentrations of drug, either as a single agent or in combination. The signal for Caspase 3/7 Glo was determined 24 hours after dosing. The caspase 3/7 activity was normalized to cell number per well, using a parallel plate treated with Cell Titer Glo (Promega Corporation, Madison, Wis.). Signal for each well was normalized using the following formula: Caspase 3/7 Glo luminescence units/Cell Titer Glo fraction of DMSO control.
Assay [12] has as its system Akt. The assay can be described thus: Western blotting of Akt phosphorylation, A673. The following applies: 24 hour; for Akt pathway activity / activation state, single agent: OSI-906 3 uM, Doxorubicin 500nM or 1 μM.
In assay [13] the test system is IGF-1R. As to the kind of experiment: Proteome Profiler RTK capture array, pIGF-1R in A673. The note with it: for phosphorylation of IGF-1R, single agent: OSI-906 3 μM, Doxorubicin 500 nM, MAB391 10 ug/ml.
Procedure: (§4) Effect of OSI-906 (3 μM), Doxorubicin (500 nM), the combination of OSI-906+ doxorubicin, MAB391 (10 ug/ml), and the combination of MAB391+ doxorubicin on the phosphorylation states for IR and IGF-1R. Phosphorylation of IR and IGF-1R was realized using the Proteome Profiler™ RTK capture Array (R & D Systems).
as §1

“And” between values parts separate entries of the source, which are not always exact repeats. Identical values can stand only once. “Also recorded” adds a separate entry of the source. Some results are limits rather than exact numbers.

By EC50 is commonly meant the concentration at which the effect is half-maximal.

Procedure for H292 tumor cells: The combination of varying concentrations of OSI-906 (30 nM-3 μM) with 50 uM cisplatin on the induction of apoptosis at 24 hours post dosing (Caspase Glo, Promega) was determined for a panel of 5 NSCLC tumor cell lines (H460, H292, H322, H358, and Calu6). The fold induction in apoptosis greater than the sums achieved by the single agents is noted in the table.
as §3
Procedure for H322 tumor cells: as §2
Measurement of apoptosis: Induction of apoptosis as measured by increased Caspase 3/7 activity was determined using the Caspase 3/7 Glo assay (Promega Corporation, Madison, Wis.). Cell lines were seeded at a density of 3000 cells per well in a 96-well plate. 24 hours after plating cells were dosed with varying concentrations of drug, either as a single agent or in combination. The signal for Caspase 3/7 Glo was determined 24 hours after dosing. The caspase 3/7 activity was normalized to cell number per well, using a parallel plate treated with Cell Titer Glo (Promega Corporation, Madison, Wis.). Signal for each well was normalized using the following formula: Caspase 3/7 Glo luminescence units/Cell Titer Glo fraction of DMSO control. All graphs were generated using PRISM® software (Graphpad Software, San Diego, Calif.).
Procedure for H358 tumor cells: as §2
The effect of varying concentrations of OSI-906 (0, 0.3 nM, 1 μM, 3 μM, and 5 μM) on apoptosis in the presence or absence of Taxol (3 nM) for H292 and H358 NSCLC tumor cell lines. Apoptosis measurements were determined by measuring caspase 3/7 activity (Caspase GlO™, Promega) and were captured 24 hours after dosing.
as §3
Procedure for IR: as §4, §1
Procedure for MDA-1186 tumor cells: The effect of varying concentrations of OSI-906 (0, 0.3 nM, 1 uM, 3 μM, and 5 μM) on apoptosis in the presence or absence of Taxol (10 nM) or cisplatin (50 μM) for the MDA-1186 SCCHN tumor cell line. Apoptosis measurements were determined by measuring caspase 3/7 activity (Caspase Glo, Promega) and were captured 24 and 48 hours after dosing.
as §3
Procedure for MDA-MB-231 cells: Apoptosis measurements were captured 24 hours after dosing, and apoptosis was assayed by measurement of caspase 3/7 activity. Measurement of apoptosis: Induction of apoptosis as measured by increased Caspase 3/7 activity was determined using the Caspase 3/7 Glo assay (Promega Corporation, Madison, Wis.). Cell lines were seeded at a density of 3000 cells per well in a 96-well plate. 24 hours after plating cells were dosed with varying concentrations of drug, either as a single agent or in combination. The signal for Caspase 3/7 Glo was determined 24 hours after dosing. The caspase 3/7 activity was normalized to cell number per well, using a parallel plate treated with Cell Titer Glo (Promega Corporation, Madison, Wis.). Signal for each well was normalized using the following formula: Caspase 3/7 Glo luminescence units/Cell Titer Glo fraction of DMSO control.

Consider `CC(=O)O[C@H]1C(=O)[C@@]2(C)[C@H]([C@H](OC(=O)c3ccccc3)[C@]3(O)C[C@H](OC(=O)[C@H](O)[C@@H](NC(=O)c4ccccc4)c4ccccc4)C(C)=C1C3(C)C)[C@]1(OC(C)=O)CO[C@@H]1C[C@@H]2O` [taxol, paclitaxel], for which the pAkt over time entry in the assay on Akt [1] is on record as “modest increase in the Akt survival pathway, however this pathway is further driven upon prolonged 6 hour exposure to paclitaxel”. Moreover, in the assay on IGF-1R [2], the “pIGF-1R levels in tumors” value was “upregulated”. Moreover, the IGF-1R phosphorylation entry is listed as “Only in H292 tumor cells did taxol promote an increase in IGF-1R phosphorylation” with IGF-1R [3] and “promote an increase in IGF-1R phosphorylation” with IGF-1R [4] (H292, taxol 100 nM, 24 hours). In addition, in the assay on IGF-1R complex, the “phosphorylation of the IGF-1R complex” value was “promote phosphorylation of the IGF-1R complex”. Also, the pIGF-1R over time entry with IGF-1R [4] (H292 in vitro, 30 nM paclitaxel, 2 and 6 hours) is given as “time-dependent increase in pIGF-1R”. Besides, in the assay with IGF-1R [4] (Homo sapiens, NCI-H292, H292, 24 hours after dosing, read-out: EC50 for promoting phosphorylation of IGF-1R), the EC50 was determined as 10 nM.
For the molecule `CC1(O)CC(c2nc(-c3ccc4ccc(-c5ccccc5)nc4c3)c3c(N)nccn23)C1` (stereo not drawn) [Compound D, cis-3-[8-amino-1-(2-phenyl-quinolin-7-yl)-imidazo[1,5-a]pyrazin-3-yl]-1-methyl-cyclobutanol], the results for the “apoptosis, single agent” value with H460 tumor cells [5] (OSI-906 alone) and in the assay on MDA-1186 tumor cells (OSI-906 alone) were “fails to promote apoptosis or significantly inhibit cell growth” and “did not achieve significant apoptosis as a single agent”, respectively. For the same molecule, the “apoptosis, combination with taxol” value in the assay on H460 tumor cells [5] (in the presence of 12 nM Taxol, listed as OSI-906) was “synergistic promotion of apoptosis and inhibition of cell survival; also recorded: increase the pro-apoptotic effects of doxorubicin”; in the assay on MDA-1186 tumor cells (Taxol 10 nM, 24 and 48 hours, listed as OSI-906), “promoted a dose dependent increase in apoptosis; also recorded: synergistic induction of apoptosis”. The “phosphorylation of IR, single agent” value in the assay with IR is “achieves inhibition for both pIR and pIGF-1R”. Moreover, the “phosphorylation of IR, combination with doxorubicin” value in the assay with IR (with Doxorubicin 500 nM) is listed as “blocked upon co-treatment with OSI-906”. Also, the “apoptosis gain, combination with taxol” value in the assay with H322 tumor cells (OSI-906 30 nM-3 μM with 3 nM Taxol, 24 hours) was more than 2 fold. Further, the “induction of apoptosis, combination with paclitaxel” value in the assay on H322 tumor cells (paclitaxel and OSI-906) was “synergistic induction of apoptosis”. Besides, the “induction in apoptosis (caspase 3/7 activity), combination” value in the assay on MDA-MB-231 cells (1 μM doxorubicin and 0.3 μM compound D) is recorded as “about 3 fold”. Also, the “apoptosis (caspase 3/7 activity), combination with doxorubicin” value is “synergistic promotion of apoptosis; also recorded: synergistic increase in doxorubicin-mediated apoptosis; also recorded: extent of cooperativity appears to be greater at higher concentrations of OSI-906, i.e. 3 μM, than that achieved maximally by a-IR3; also recorded: synergistic induction of apoptosis” in the assay with A673 tumor cells [6] and “synergistic promotion of apoptosis” with SK-ES-1 tumor cells [11]. For the same molecule, the “overall cell growth, combination with doxorubicin” value in the assay on A673 tumor cells [7] was “synergistic promotion of apoptosis and inhibition of overall cell growth”; in the assay on SK-ES-1 tumor cells [8], “synergistic promotion of apoptosis and inhibition of overall cell growth”. The “increase in apoptosis (apoptosis gain), combination with cisplatin” value in the assay with H292 tumor cells was > 3 fold and > 2 fold. In assay [9] (combination of doxorubicin and Compound D), the “Akt phosphorylation (pAkt-S473), combination with doxorubicin” value is reported as “efficacious at inhibiting the increase in Akt phosphorylation provoked by doxorubicin”. The “synergy for the combination of OSI-906 and taxol (apoptosis)” value in the assay on H358 tumor cells is on record as “observed for H292, but not H358”. Also, the “Erk activation state, co-treatment with doxorubicin” value in the assay with Erk (OSI-906 3 uM plus doxorubicin) is on record as “gain in activity can be inhibited upon co-treatment with OSI-906”. Further, in the assay with Erk, the “MAPK (Erk) pathway activity / activation state, single agent” value was “achieves inhibition of both pathways”. Further, the “overall cell growth, combination with taxol” value in the assay with H460 tumor cells [10] (5 μM OSI-906 with taxol, 72 hours, versus Bliss additivity) was “greater than additive inhibition of overall cell growth”. The “overall cell growth, single agent” value in the assay with H460 tumor cells [10] (OSI-906 alone) is on record as “fails to promote apoptosis or significantly inhibit cell growth”. For the same molecule, the “Akt activation state, co-treatment with doxorubicin” value in the assay with Akt [12] (OSI-906 3 uM plus doxorubicin) is listed as “gain in activity can be inhibited upon co-treatment with OSI-906”. Moreover, the “Akt pathway activity / activation state, single agent” value in the assay with Akt [12] is “achieves inhibition of both pathways”. Besides, the “phosphorylation of IGF-1R, single agent” value with IGF-1R [13] is “achieves inhibition for both pIR and pIGF-1R”. Besides, the “phosphorylation of IGF-1R, combination with doxorubicin” value in the assay on IGF-1R [13] (with Doxorubicin 500 nM) is recorded as “blocked upon co-treatment with OSI-906”.
In the case of `COc1cccc2c1C(=O)c1c(O)c3c(c(O)c1C2=O)C[C@@](O)(C(=O)CO)C[C@@H]3O[C@H]1C[C@H](N)[C@H](O)[C@H](C)O1` [doxorubicin, reference compound], the “phosphorylation of IR, single agent” value in the assay on IR is “promotes an upregulation of the phosphorylation state for both IR and IGF-1R”. Besides, the “induction in apoptosis (caspase 3/7 activity), single agent” value in the assay on MDA-MB-231 cells (doxorubicin alone) is “only a small induction in apoptosis”. In addition, in assay [9] (24 hours), the “Akt phosphorylation (pAkt-S473), single agent” value is on record as “promotes an increase in Akt phosphorylation”. Also, the “MAPK (Erk) pathway activity / activation state, single agent” value with Erk was “increase in the activation states for both Akt and Erk”. Besides, the “Akt pathway activity / activation state, single agent” value with Akt [12] is “increase in the activation states for both Akt and Erk”. The “phosphorylation of IGF-1R, single agent” value with IGF-1R [13] is “promotes an upregulation of the phosphorylation state for both IR and IGF-1R”.

Values taken from patent US20090263397A1, “Combination anti-cancer therapy” (priority 2007, published 2009).
